Laboratory results from patent US4569801A, “Alkylsulfonamidophenylalkylamines” (priority 1984, dated 1986).
Where two headings read alike, the source gives them in different places.

Assays:
[1] = test system: normal canine Purkinje fibers; experiment: Action potential duration of normal canine Purkinje fibers superfused in vitro (standard electrophysiological techniques); format: cell-based; details: Canis lupus familiaris, 10^-7 M, Ringer's solution at 35° C., driven at 1 Hz, read-out: Percent Increase in Action Potential Duration (at 95% of full repolarization)
Experimental: The antiarrhythmic activity of the compounds provided by the present invention was determined by the use of standard electrophysiological techniques to measure resting potential, action potential amplitude, duration, rate of rise and effective refractory periods of normal canine Purkinje fibers superfused in vitro with Ringer's solution at 35° C. and driven at a constant frequency of 1 Hz. Table 1 presents the data obtained for a number of compounds of the invention when evaluated in this test. The data presented is the percent increase in the action potential duration at 95% of full repolarization at 10^-7 M.

[2] = test system: ventricular effective refractory period; experiment: Ventricular effective refractory period in halothane-anesthetized dogs; format: in vivo; details: for ED (+30 msec): Canis lupus familiaris; for I.D./I.V. (ratio of intraduodenal to intravenous dose): ratio of doses for +30 msec refractory period
Experimental: Certain of the compounds of the present invention were tested in halothane-anesthetized dogs in an effort to evaluate the effectiveness of the compounds in increasing the ventricular effective refractory period. Table 2 provides the quantity of specified compound in mg/kg necessary to increase the aforementioned refractory period by 30 msec. when administered either intravenously or intraduadenally. The compounds were tested against clofilium and N-ethyl-N-heptyl-4-nitrobenzenebutanamine, ethanedioic acid for comparative purposes.

[3] = clofilium and similar quaternary ammonium salts; background; cited from earlier work
[4] = intraduodenal, read-out: quantity of compound necessary to increase the ventricular effective refractory period by 30 msec., Intraduodenal
[5] = intravenous, read-out: quantity of compound necessary to increase the ventricular effective refractory period by 30 msec., Intravenous

Structure (SMILES)	activation at 0.1 µM [1] [%]	ED (+30 msec) [2, 4] [mg/kg]	ED (+30 msec) [2, 5] [mg/kg]	I.D./I.V. (ratio of intraduodenal to intravenous dose) [2]	oral bioavailability [3]
CCCCCCCN(CC)CCCCc1ccc(NS(=O)(=O)CC)cc1 [Example 8, N-[4-[4-(Ethylheptylamino)butyl]phenyl]ethanesulfonamide]	19 ± 4	–	–	–	–
CCCCCCCN(CCCC)CCCCc1ccc(NS(C)(=O)=O)cc1 [Example 3, N-[4-[4-(Butylheptylamino)butyl]phenyl]methanesulfonamide ethanedioate]	26 ± 4	2.4	0.1	24	–
CCCCCCCN(CC)CCCCc1cccc(NS(C)(=O)=O)c1 [Example 7, N-[3-[4-(Ethylheptylamino)butyl]phenyl]methanesulfonamide]	20 ± 9	–	–	–	–
CCCCCCC[N+](CC)(CC)CCCCc1ccc(Cl)cc1 [clofilium, 4-chloro-N,N-diethyl-N-heptylbenzenebutanaminium phosphate, reference compound]	–	7	0.18	39	marginal oral bioavailability
CCCCCCCN(CC)CCCCc1ccc(NS(C)(=O)=O)cc1 [Example 1, N-[4-[4-(Ethylheptylamino)butyl]phenyl]methanesulfonamide ethanedioate]	31 ± 6	2.2	0.29	8	–
CCCCCCCN(CCCC)C(C)CCCc1ccc(NS(C)(=O)=O)cc1 (centres unmarked) [Example 4, N-[4-[4-(Butylheptylamino)pentyl]phenyl]methanesulfonamide]	–	4	0.25	16	–
CCCCCCCN(CC)CCCCc1ccc([N+](=O)[O-])cc1.O=C(O)C(=O)O [N-ethyl-N-heptyl-4-nitrobenzenebutanamine, ethanedioic acid, reference compound]	–	1.1	0.06	18	–
CCCCCCCN(CC)C(C)CCCc1ccc(NS(C)(=O)=O)cc1 (centres unmarked) [Example 2, N-[4-[4-(Ethylheptylamino)pentyl]phenyl]methanesulfonamide 2-hydroxy-1,2,3-propanetricarboxylate]	–	8	0.27	30	–
